pKi: −log10 of the molar value.
Test system: human Burkitt’s lymphoma (Daudi)
Assay: Metabolic activity assay (MTS), Daudi
Assay type: cell-based
Conditions: 50 µM, 24 h
Experimental: (§1) Compounds 11, and 14–16 were further tested for selective cytotoxicity. The experiments were conducted on freshly isolated primary peripheral blood mononuclear cells (PBMC) and three other haematological cancers: human T cell leukaemia (Jurkat), human histiocytic lymphoma (U937) and human Burkitt’s lymphoma (Daudi). An MTS assay was performed following 24 h of treatment with the compound of interest at 50 µM. […] The inhibition of proliferation in Ramos cells, mediated with compounds 15 and 16, was concentration dependent.
(§2) Cells (1×10^5 cells/mL for Ramos, Daudi, U937 and Jurkat, and 1×10^6 cells/mL for PBMC) were treated with the appropriate amounts of compounds of interest or corresponding vehicle (control cells), then seeded in triplicate in 96 well plates. The metabolic activity was assessed using the CellTiter 96® Aqueous One Solution Cell Proliferation Assay (Promega, Madison/WI, USA), in accordance with the manufacturer’s instructions.
In the case of `CC1CCN(C(=O)N(CC2CCNCC2)NS(=O)(=O)c2ccc3ccccc3c2)CC1` [Compound 11], the “residual metabolic activity relative to control” value was “under 40%”. For `CC(=O)N1CCC(CN(NS(=O)(=O)c2ccc3ccccc3c2)C(=O)N2CCCCC2)CC1` [Compound 14], the “residual metabolic activity relative to control” value was “under 40%”.

Test system: human histiocytic lymphoma (U937)
Assay: Metabolic activity assay (MTS), U937
Assay type: cell-based
Conditions: U937, 50 µM, 24 h
Experimental: as §1, §2
In the case of `CC1CCN(C(=O)N(CC2CCNCC2)NS(=O)(=O)c2ccc3ccccc3c2)CC1` [Compound 11], the “residual metabolic activity relative to control” value was “under 40%”. For `CC(=O)N1CCC(CN(NS(=O)(=O)c2ccc3ccccc3c2)C(=O)N2CCCCC2)CC1` [Compound 14], the “residual metabolic activity relative to control” value was “under 40%”.

Molecular target: α-chymotrypsin (Bos taurus, UniProt P00766)
Assay: α-Chymotrypsin inhibition assay
Conditions: not given
Work on `N/C(=N/O)c1ccc(CN(NC(=O)c2ccc3ccccc3c2)C(=O)N2CCCCCC2)cc1` [Compound 1] yielded a pKi of 4.47. Molecule `CC1CCN(C(=O)N(Cc2ccc(/C(N)=N\O)cc2)NC(=O)c2ccc3ccccc3c2)CC1` [Compound 2] has a pKi of 3.59. `N/C(=N\O)c1cccc(CN(NC(=O)c2ccc3ccccc3c2)C(=O)N2CCCCCC2)c1` [Compound 3] showed a pKi of 5.52. In the case of `N/C(=N\O)c1cccc(CN(NS(=O)(=O)c2ccc3ccccc3c2)C(=O)N2CCOCC2)c1` [Compound 4], the pKi was 4.39. `CC1CCN(C(=O)N(Cc2ccc(C#N)cc2)NC(=O)c2ccc3ccccc3c2)CC1` [Compound 5] showed a pKi of 3.56. For `CC1CCN(C(=O)N(CC2CCNCC2)NS(=O)(=O)c2ccc3ccccc3c2)CC1` [Compound 11], the pKi was 4.41. With `CC(=O)N1CCC(CN(NS(=O)(=O)c2ccc3ccccc3c2)C(=O)N2CCCCC2)CC1` [Compound 14] the pKi was 4.32.

Molecular target: Thrombin
Assay: not given
Set-up: method as in PMID 15497744, PMID 15544050, PMID 17484277
Conditions: amidolytic assay, chromogenic substrate; determined previously; cited from earlier work
In the case of `N/C(=N/O)c1ccc(CN(NC(=O)c2ccc3ccccc3c2)C(=O)N2CCCCCC2)cc1` [Compound 1], the pKi is given as 5.28. In the case of `CC1CCN(C(=O)N(Cc2ccc(/C(N)=N\O)cc2)NC(=O)c2ccc3ccccc3c2)CC1` [Compound 2], the pKi is listed as less than 3.70. In the case of `N/C(=N\O)c1cccc(CN(NC(=O)c2ccc3ccccc3c2)C(=O)N2CCCCCC2)c1` [Compound 3], the pKi is listed as 5.32. In the case of `N/C(=N\O)c1cccc(CN(NS(=O)(=O)c2ccc3ccccc3c2)C(=O)N2CCOCC2)c1` [Compound 4], the pKi is given as 5.51. In the case of `CC1CCN(C(=O)N(CC2CCNCC2)NS(=O)(=O)c2ccc3ccccc3c2)CC1` [Compound 11], the pKi is listed as 4.72.

Molecular target: Factor Xa
Assay: not given
Set-up: method as in PMID 15497744, PMID 15544050, PMID 17484277
Conditions: amidolytic assay, chromogenic substrate; determined previously; cited from earlier work
For `N/C(=N/O)c1ccc(CN(NC(=O)c2ccc3ccccc3c2)C(=O)N2CCCCCC2)cc1` [Compound 1], the pKi is given as 4.11. For `CC1CCN(C(=O)N(Cc2ccc(/C(N)=N\O)cc2)NC(=O)c2ccc3ccccc3c2)CC1` [Compound 2], the pKi is given as less than 3.70. In the case of `N/C(=N\O)c1cccc(CN(NC(=O)c2ccc3ccccc3c2)C(=O)N2CCCCCC2)c1` [Compound 3], the pKi is given as 4.22. For `N/C(=N\O)c1cccc(CN(NS(=O)(=O)c2ccc3ccccc3c2)C(=O)N2CCOCC2)c1` [Compound 4], the pKi is listed as 4.22.

Test system: peripheral blood mononuclear cells (PBMC)
Assay: Metabolic activity assay (MTS), PBMC
Assay type: cell-based, human
Conditions: 50 µM, 24 h
Experimental: as §1, §2
For `CC1CCN(C(=O)N(CC2CCNCC2)NS(=O)(=O)c2ccc3ccccc3c2)CC1` [Compound 11], the “residual metabolic activity relative to control” value was “under 40%”. With `CC(=O)N1CCC(CN(NS(=O)(=O)c2ccc3ccccc3c2)C(=O)N2CCCCC2)CC1` [Compound 14] the “residual metabolic activity relative to control” value was “under 40%”.

Molecular target: Trypsin
Assay: not given
Set-up: method as in PMID 15497744, PMID 15544050, PMID 17484277
Conditions: amidolytic assay, chromogenic substrate; determined previously; cited from earlier work
In the case of `N/C(=N/O)c1ccc(CN(NC(=O)c2ccc3ccccc3c2)C(=O)N2CCCCCC2)cc1` [Compound 1], the pKi is given as 3.18. In the case of `CC1CCN(C(=O)N(Cc2ccc(/C(N)=N\O)cc2)NC(=O)c2ccc3ccccc3c2)CC1` [Compound 2], the pKi is listed as 3.70. For `N/C(=N\O)c1cccc(CN(NC(=O)c2ccc3ccccc3c2)C(=O)N2CCCCCC2)c1` [Compound 3], the pKi is given as less than 4.00. In the case of `N/C(=N\O)c1cccc(CN(NS(=O)(=O)c2ccc3ccccc3c2)C(=O)N2CCOCC2)c1` [Compound 4], the pKi is given as 4.32. In the case of `CC1CCN(C(=O)N(CC2CCNCC2)NS(=O)(=O)c2ccc3ccccc3c2)CC1` [Compound 11], the pKi is given as less than 3.70.

Test system: Ramos Burkitt’s lymphoma cells
Assay: Metabolic activity assay (MTS), Ramos
Assay type: cell-based, human
Conditions: 50 µM, 24 h
Experimental: When investigating the potency of selected serine protease inhibitors to induce cell death in human B lymphoma cells, we identified a set of compounds cytotoxic for Burkitt’s lymphoma. Using a metabolic activity assay (MTS), we evaluated the proliferation rate of Ramos Burkitt’s lymphoma cells, in the presence of serine protease inhibitors. Cells were treated for 24 h with the compound of interest at concentrations of 100 µM (1–13, 15, 16) or 50 µM (14). After a comparison of metabolic activity relative to that in the untreated control, three groups with distinct modes of action were determined (Figure 3A). […] The second group (compounds 1–3, 5, 7 and 13) caused a moderate decrease (50% to 80%) relative to untreated cells. The last group of compounds (11, 15, 16) severely impaired the metabolic activity, such that it fell to under 6%.
as §2
For `CC1CCN(C(=O)N(CC2CCNCC2)NS(=O)(=O)c2ccc3ccccc3c2)CC1` [Compound 11], the “residual metabolic activity relative to control” value was “under 40%”.

Same assay, conditions: 100 µM, 24 h
With `N/C(=N/O)c1ccc(CN(NC(=O)c2ccc3ccccc3c2)C(=O)N2CCCCCC2)cc1` [Compound 1] the “cytotoxicity group (Figure 3A)” value was “moderately cytotoxic (caused a moderate decrease (50% to 80%) relative to untreated cells)”. In the case of `CC1CCN(C(=O)N(Cc2ccc(/C(N)=N\O)cc2)NC(=O)c2ccc3ccccc3c2)CC1` [Compound 2], the “cytotoxicity group (Figure 3A)” value was “moderately cytotoxic (caused a moderate decrease (50% to 80%) relative to untreated cells)”. For `N/C(=N\O)c1cccc(CN(NC(=O)c2ccc3ccccc3c2)C(=O)N2CCCCCC2)c1` [Compound 3], the “cytotoxicity group (Figure 3A)” value was “moderately cytotoxic (caused a moderate decrease (50% to 80%) relative to untreated cells)”. For `N/C(=N\O)c1cccc(CN(NS(=O)(=O)c2ccc3ccccc3c2)C(=O)N2CCOCC2)c1` [Compound 4], the “cytotoxicity group (Figure 3A)” value was “well tolerated (well tolerated by Ramos, since their residual metabolic activity did not fall below 80%)”. In the case of `CC1CCN(C(=O)N(Cc2ccc(C#N)cc2)NC(=O)c2ccc3ccccc3c2)CC1` [Compound 5], the “cytotoxicity group (Figure 3A)” value was “moderately cytotoxic (caused a moderate decrease (50% to 80%) relative to untreated cells)”. For `CC1CCN(C(=O)N(CC2CCNCC2)NS(=O)(=O)c2ccc3ccccc3c2)CC1` [Compound 11], the “cytotoxicity group (Figure 3A)” value was “severely cytotoxic (severely impaired the metabolic activity, such that it fell to under 6%)”.

Same assay, conditions: Homo sapiens, 100 µM, 24 h, read-out: residual metabolic activity relative to untreated control
`N/C(=N/O)c1ccc(CN(NC(=O)c2ccc3ccccc3c2)C(=O)N2CCCCCC2)cc1` [Compound 1] showed a viability at 100 µM of 50 to 80%. `CC1CCN(C(=O)N(Cc2ccc(/C(N)=N\O)cc2)NC(=O)c2ccc3ccccc3c2)CC1` [Compound 2] gave a viability at 100 µM of 50 to 80%. For `N/C(=N\O)c1cccc(CN(NC(=O)c2ccc3ccccc3c2)C(=O)N2CCCCCC2)c1` [Compound 3], the viability at 100 µM was 50 to 80%. Work on `N/C(=N\O)c1cccc(CN(NS(=O)(=O)c2ccc3ccccc3c2)C(=O)N2CCOCC2)c1` [Compound 4] yielded a viability at 100 µM of no less than 80%. In the case of `CC1CCN(C(=O)N(Cc2ccc(C#N)cc2)NC(=O)c2ccc3ccccc3c2)CC1` [Compound 5], the viability at 100 µM was 50 to 80%. In the case of `CC1CCN(C(=O)N(CC2CCNCC2)NS(=O)(=O)c2ccc3ccccc3c2)CC1` [Compound 11], the viability at 100 µM was less than 6%.

Test system: not listed separately
Assay: Solubility remark
Assay type: physicochemical
Conditions: reason for testing at 50 µM
In the case of `CC(=O)N1CCC(CN(NS(=O)(=O)c2ccc3ccccc3c2)C(=O)N2CCCCC2)CC1` [Compound 14], the solubility was “poor solubility”.

Test system: human T cell leukaemia (Jurkat)
Assay: Metabolic activity assay (MTS), Jurkat
Assay type: cell-based
Conditions: 50 µM, 24 h
Experimental: as §1, §2
With `CC1CCN(C(=O)N(CC2CCNCC2)NS(=O)(=O)c2ccc3ccccc3c2)CC1` [Compound 11] the “residual metabolic activity relative to control” value was “under 40%”. For `CC(=O)N1CCC(CN(NS(=O)(=O)c2ccc3ccccc3c2)C(=O)N2CCCCC2)CC1` [Compound 14], the “residual metabolic activity relative to control” value was “under 40%”.

Reference: publication PMC3408433, “Selective Cytotoxicity of Amidinopiperidine Based Compounds Towards Burkitt’s Lymphoma Cells Involves Proteasome Inhibition” (PLoS ONE, 2012)
